Reference: ChEMBL document CHEMBL1201862, “PubChem BioAssay data set” (2004)
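Five compound concentrations were applied to cells in 96-well plates for 48 hours; endpoints were derived by simple linear interpolation of the resulting dose-response curve. GI50: concentration for 50% inhibition of growth.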 The source made the active and inactive calls. No stated cut-off is given here; in the data, active = GI50 up to about 1.1 µM and inactive = higher.

Assays:
Test in all cases: NCI anticancer screen, dose series, 48 h
[1] = test system: NCI-H23
[2] = test system: OVCAR-8
[3] = test system: MDA-N
[4] = test system: UACC-257
[5] = test system: SN12C
[6] = test system: HOP-62
[7] = test system: HCT-116
[8] = test system: LOX IMVI
[9] = test system: CCRF-CEM
[10] = test system: MCF7
[11] = test system: UO-31
[12] = test system: RXF 393
[13] = test system: RPMI-8226
[14] = test system: T47D
[15] = test system: ACHN
[16] = test system: SK-MEL-5
[17] = test system: OVCAR-5
[18] = test system: COLO 205
[19] = test system: SK-OV-3
[20] = test system: NCI-H522
[21] = test system: SK-MEL-28
[22] = test system: CAKI-1
[23] = test system: U-251
[24] = test system: SNB-19
[25] = test system: A549
[26] = test system: HT-29
[27] = test system: DU-145
[28] = test system: Malme-3M
[29] = test system: MDA-MB-231
[30] = test system: UACC-62
[31] = test system: SF-539
[32] = test system: MOLT-4
[33] = test system: SNB-75
[34] = test system: HCC 2998
[35] = test system: KM12
[36] = test system: SW-620
[37] = test system: SF-295
[38] = test system: NCI-H226
[39] = test system: OVCAR-3
[40] = test system: EKVX
[41] = test system: IGROV-1
[42] = test system: NCI-H460
[43] = test system: TK-10
[44] = test system: MDA-MB-435
[45] = test system: M14
[46] = test system: SK-MEL-2
[47] = test system: PC-3
[48] = test system: 786-0
[49] = test system: BT-549
[50] = test system: HCT-15
[51] = test system: K562
[52] = test system: OVCAR-4
[53] = test system: NCI/ADR-RES
[54] = test system: HOP-92
[55] = test system: SR
[56] = test system: HL-60
[57] = test system: SF-268
[58] = test system: A498
[59] = test system: Hs-578T

CCN(C(=O)N[C@@H](Cc1ccccc1)C(=O)N[C@@H](CC(C)C)C(=O)NC)c1ccccc1
GI50 [1]: > 100 µM (inactive)
GI50 [2]: > 100 µM (inactive)
GI50 [3]: > 100 µM (inactive)
GI50 [4]: > 100 µM (inactive)
GI50 [5]: > 100 µM (inactive)
GI50 [6]: > 100 µM (inactive)
GI50 [7]: > 100 µM (inactive)
GI50 [8]: > 100 µM (inactive)
GI50 [9]: > 100 µM (inactive)
GI50 [10]: > 100 µM (inactive)
GI50 [11]: > 100 µM (inactive)
GI50 [12]: > 100 µM (inactive)
GI50 [13]: 77.1 µM (inactive)
GI50 [14]: > 100 µM (inactive)
GI50 [15]: > 100 µM (inactive)
GI50 [16]: > 100 µM (inactive)
GI50 [17]: > 100 µM (inactive)
GI50 [18]: > 100 µM (inactive)
GI50 [19]: > 100 µM (inactive)
GI50 [20]: > 100 µM (inactive)
GI50 [21]: > 100 µM (inactive)
GI50 [22]: > 100 µM (inactive)
GI50 [23]: > 100 µM (inactive)
GI50 [24]: > 100 µM (inactive)
GI50 [25]: > 100 µM (inactive)
GI50 [26]: > 100 µM (inactive)
GI50 [27]: > 100 µM (inactive)
GI50 [28]: > 100 µM (inactive)
GI50 [29]: > 100 µM (inactive)
GI50 [30]: > 100 µM (inactive)
GI50 [31]: > 100 µM (inactive)
GI50 [32]: > 100 µM (inactive)
GI50 [33]: 95.3 µM (inactive)
GI50 [34]: > 100 µM (inactive)
GI50 [35]: > 100 µM (inactive)
GI50 [36]: > 100 µM (inactive)
GI50 [37]: > 100 µM (inactive)
GI50 [38]: > 100 µM (inactive)
GI50 [39]: > 100 µM (inactive)
GI50 [40]: > 100 µM (inactive)
GI50 [41]: > 100 µM (inactive)
GI50 [42]: > 100 µM (inactive)
GI50 [43]: > 100 µM (inactive)
GI50 [44]: > 100 µM (inactive)
GI50 [45]: > 100 µM (inactive)
GI50 [46]: > 100 µM (inactive)
GI50 [47]: > 100 µM (inactive)
GI50 [48]: > 100 µM (inactive)
GI50 [49]: > 100 µM (inactive)
GI50 [50]: > 100 µM
GI50 [51]: > 100 µM (inactive)
GI50 [52]: > 100 µM (inactive)
GI50 [53]: > 100 µM (inactive)
GI50 [54]: > 100 µM (inactive)

CC1(C)COC(c2cccc(C3=NC(C)(C)CO3)c2Br)=N1
GI50 [1]: > 100 µM (inactive)
GI50 [2]: > 100 µM (inactive)
GI50 [4]: > 100 µM (inactive)
GI50 [6]: > 100 µM (inactive)
GI50 [7]: > 100 µM (inactive)
GI50 [8]: > 100 µM (inactive)
GI50 [10]: > 100 µM (inactive)
GI50 [11]: > 100 µM (inactive)
GI50 [12]: > 100 µM (inactive)
GI50 [13]: > 100 µM (inactive)
GI50 [14]: > 100 µM (inactive)
GI50 [15]: > 100 µM (inactive)
GI50 [16]: > 100 µM (inactive)
GI50 [17]: > 100 µM (inactive)
GI50 [18]: > 100 µM (inactive)
GI50 [21]: > 100 µM (inactive)
GI50 [22]: > 100 µM (inactive)
GI50 [23]: > 100 µM (inactive)
GI50 [24]: > 100 µM (inactive)
GI50 [25]: > 100 µM (inactive)
GI50 [26]: > 100 µM (inactive)
GI50 [27]: > 100 µM (inactive)
GI50 [55]: > 100 µM (inactive)
GI50 [28]: > 100 µM (inactive)
GI50 [29]: > 100 µM (inactive)
GI50 [30]: 7.48 µM (inactive)
GI50 [31]: > 100 µM (inactive)
GI50 [32]: > 100 µM (inactive)
GI50 [33]: 3.05 µM (inactive)
GI50 [56]: > 100 µM (inactive)
GI50 [34]: > 100 µM (inactive)
GI50 [35]: > 100 µM (inactive)
GI50 [36]: > 100 µM (inactive)
GI50 [57]: > 100 µM (inactive)
GI50 [38]: > 100 µM (inactive)
GI50 [40]: > 100 µM (inactive)
GI50 [41]: > 100 µM (inactive)
GI50 [42]: > 100 µM (inactive)
GI50 [43]: > 100 µM (inactive)
GI50 [44]: > 100 µM (inactive)
GI50 [45]: > 100 µM (inactive)
GI50 [46]: > 100 µM (inactive)
GI50 [47]: > 100 µM (inactive)
GI50 [48]: > 100 µM (inactive)
GI50 [49]: > 100 µM (inactive)
GI50 [50]: > 100 µM
GI50 [51]: > 100 µM (inactive)
GI50 [52]: > 100 µM (inactive)
GI50 [53]: > 100 µM (inactive)
GI50 [54]: > 100 µM (inactive)

COc1ccc(-c2cc(O)c3c(C)ccnc3n2)cc1
GI50 [1]: 19 µM (inactive)
GI50 [2]: 25.9 µM (inactive)
GI50 [4]: 33.7 µM (inactive)
GI50 [5]: 27.7 µM (inactive)
GI50 [6]: 20.7 µM (inactive)
GI50 [8]: 14.3 µM (inactive)
GI50 [9]: 17.8 µM (inactive)
GI50 [10]: 2.03 µM (inactive)
GI50 [11]: 27.8 µM (inactive)
GI50 [12]: 19.9 µM (inactive)
GI50 [13]: 9.31 µM (inactive)
GI50 [14]: 7.43 µM (inactive)
GI50 [15]: 21.2 µM (inactive)
GI50 [17]: 20.5 µM (inactive)
GI50 [18]: 4.26 µM (inactive)
GI50 [19]: 23 µM (inactive)
GI50 [20]: 8.13 µM (inactive)
GI50 [21]: 15.3 µM (inactive)
GI50 [22]: 33.8 µM (inactive)
GI50 [58]: 14.3 µM (inactive)
GI50 [24]: 36.8 µM (inactive)
GI50 [25]: 10.3 µM (inactive)
GI50 [26]: 4.93 µM (inactive)
GI50 [27]: 28.8 µM (inactive)
GI50 [28]: 10.8 µM (inactive)
GI50 [29]: 49.5 µM (inactive)
GI50 [30]: 10.6 µM (inactive)
GI50 [31]: 17.4 µM (inactive)
GI50 [32]: 12.1 µM (inactive)
GI50 [34]: 22.5 µM (inactive)
GI50 [59]: 23.8 µM (inactive)
GI50 [35]: 3.18 µM (inactive)
GI50 [36]: 4.81 µM (inactive)
GI50 [57]: 15.1 µM (inactive)
GI50 [38]: 33.5 µM (inactive)
GI50 [40]: 30.7 µM (inactive)
GI50 [41]: 5.64 µM (inactive)
GI50 [43]: 41.1 µM (inactive)
GI50 [45]: 10.8 µM (inactive)
GI50 [46]: 7.6 µM (inactive)
GI50 [49]: 33.7 µM (inactive)
GI50 [50]: 5.61 µM
GI50 [51]: 3.85 µM (inactive)
GI50 [52]: 24.8 µM (inactive)
GI50 [53]: 20.2 µM (inactive)
